Assay results: US20110028566A1, “COMPOSITIONS AND PRODUCTS CONTAINING CYCLOALIPHATIC DIOL ANTIMICROBIAL AGENTS AND METHODS OF USING THE COMPOSITIONS AND PRODUCTS” (EASTMAN CHEMICAL COMPANY, priority 2009, published 2011)

What was measured:
Assay type in all cases: cell-based
[1] = test system: Aeromonas sp.; test: Microbial challenge testing in BPW; settings: BPW, w/v % in label, average of replicates; for Grade code, Aeromonas sp, 3 Days: 3 days incubation; for Grade code, Aeromonas sp, 14 Days: 14 days incubation; for Grade code, Aeromonas sp, 30 Days: 30 days incubation
How it was run: (§1)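 BPW + 1% dextrose, pH 7.0; test material added as g/100 mL; inoculum from TSB/1% dextrose cultures grown ≥96 h at 35° C.; t0 load 10^5–10^6 cfu/mL; 35° C.±2° C. ×14 d, then RT.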

[2] = test system: Proteus vulgaris; test: Microbial challenge testing in BPW; settings: BPW, w/v % in label, average of replicates; for Grade code, P. vulgaris, 3 Days: 3 days incubation; for Grade code, P. vulgaris, 13 Days: 13 days incubation; for Grade code, P. vulgaris, 30 Day: 30 days incubation
How it was run: as §1

[3] = test system: Trichophyton rubrum; test: Challenge testing with pathogenic fungi in SDB; settings: w/v % in label, INT respiratory dye; for Grade code, Pathogenic Fungi, T. ruburm, 3 Days: 3 days incubation; for Grade code, Pathogenic Fungi, T. ruburm, 14 Days: 14 days incubation; for Grade code, Pathogenic Fungi, T. ruburm, 30 Days: 30 days incubation
Method: (§2) Both M. canis and Trichophyton rubrum were grown on Sabouraud dextrose broth (SDB) (pH 5.6), while Malassezia fufur was grown in SDB supplemented with 2% (v/v) of olive oil and 0.2% (v/v) of Tween™ 80; incubation was at 22° C.±2° C. under continuous agitation by stirring for 10 days. The organisms were grown to a cell concentration of between 10^3 and 10^4 cfu/mL. The actual inoculation cell concentration of these challenges was determined by diluting in sterile buffer water and (spread-plate method) plating for enumeration.
(§3) Challenge organisms were used to inoculate tubes containing each test material (CHDM, etc) or combination of test materials, at concentrations given in Table 5, in SDB (or for M. furfur, in SDB supplemented with olive oil and Tween™ 80). The inoculations were in the amount of 1.5 mL aliquots of each culture with static incubation at 22±2° C. Subcultures were made after 3-, 14-, and 30-days incubation. All challenges were conducted in triplicate. In the case of M. canis, the growth response was assessed by the visual presence or absence of growth in the tubes; in the case of T. rubrum, a respiratory dye (0.2% w/v aqueous INT solution: 2-(4-iodophenyl)-3-(4-nitrophenyl)-5-phenyl tetrazolium chloride) was added to the tubes, turning red if the organism was viable; and, finally, in the case of M. furfur, the growth response was assessed based upon visible pellicle formation in the tubes at the meniscus. The fungal growth in each tube was assigned a grade code as follows:
(§4) 0: No visible growth 1: Some growth in tube 2: Moderate growth in tube 3: Good growth in tube 4: Extreme growth in tube
(§5) All test material concentrations are given as w/v %. The grade codes given are the average of the grade codes for duplicate or triplicate samples.
(§6) Table 5 compares the antimicrobial activity of 1,4-CHDM (AB) alone to 1,4-CHDM in combination with EDTA, phenoxyethanol (PE), and caprylyl glycol (CG). CHDM at 0.5% was tested with EDTA, and at 1.25 and 2.5% with EDTA, PE, and CG. (Note that the combination of CHDM with only EDTA was not tested against pathogenic fungi.) Results are also given for EDTA, PE, and CG alone, so the result for each mixture can be compared to the antimicrobial activity for each of its components individually. […] Possible synergies were determined by treating the grade code as an estimate of the log of the microbial count (log of cfu/mL). Log reductions can then be estimated by subtracting each grade code from the grade code for broth alone (grade code 5, except for the pathogenic fungi).

[4] = test system: Malassezia furfur; test: Challenge testing with pathogenic fungi in SDB; settings: SDB with olive oil and Tween 80, w/v % in label, pellicle formation; for Grade code, Pathogenic Fungi, M. furfur, 3 Days: 3 days incubation; for Grade code, Pathogenic Fungi, M. furfur, 14 Days: 14 days incubation; for Grade code, Pathogenic Fungi, M. furfur, 30 Days: 30 days incubation
Method: as §2, §3, §4, §5, §6

CCCCCCC(O)CO (stereo not shown) [CG, 1,2-octanediol]
Grade code, Aeromonas sp, 3 Days [1]: 4 (1001 to 10,000 colonies (thus 10,000 cfu/mL to 100,000 cfu/mL)) | Grade code, Aeromonas sp, 14 Days [1]: 4 (1001 to 10,000 colonies (thus 10,000 cfu/mL to 100,000 cfu/mL)) | Grade code, Aeromonas sp, 30 Days [1]: 4 (1001 to 10,000 colonies (thus 10,000 cfu/mL to 100,000 cfu/mL)) | Grade code, P. vulgaris, 3 Days ([2]; listed as 0.25% CG): 4 (1001 to 10,000 colonies (thus 10,000 cfu/mL to 100,000 cfu/mL)) | Grade code, P. vulgaris, 3 Days ([2]; listed as 0.5% CG): 3 (101 to 1000 colonies (thus 1000 to 10,000 cfu/mL)) | Grade code, P. vulgaris, 13 Days [2]: 2 (52 to 100 colonies counted (thus 520 to 1000 cfu/mL)) | Grade code, P. vulgaris, 30 Day [2]: 2 (52 to 100 colonies counted (thus 520 to 1000 cfu/mL)) | Grade code, Pathogenic Fungi, T. ruburm, 3 Days [3]: 0 | Grade code, Pathogenic Fungi, T. ruburm, 14 Days [3]: 0 | Grade code, Pathogenic Fungi, T. ruburm, 30 Days [3]: 0 | Grade code, Pathogenic Fungi, M. furfur, 3 Days [4]: 0 | Grade code, Pathogenic Fungi, M. furfur, 14 Days [4]: 0 | Grade code, Pathogenic Fungi, M. furfur, 30 Days [4]: 0

O=C([O-])CN(CCN(CC(=O)O)CC(=O)O)CC(=O)[O-].[Na+].[Na+] [EDTA, ethylenediaminetetraacetic acid disodium salt]
Grade code, Aeromonas sp, 3 Days [1]: 5 (More than 10,000 colonies estimated (thus >100,000 cfu/mL)) | Grade code, Aeromonas sp, 14 Days [1]: 4 (1001 to 10,000 colonies (thus 10,000 cfu/mL to 100,000 cfu/mL)) | Grade code, Aeromonas sp, 30 Days [1]: 4 (1001 to 10,000 colonies (thus 10,000 cfu/mL to 100,000 cfu/mL)) | Grade code, P. vulgaris, 3 Days [2]: 5 (More than 10,000 colonies estimated (thus >100,000 cfu/mL)) | Grade code, P. vulgaris, 13 Days [2]: 4 (1001 to 10,000 colonies (thus 10,000 cfu/mL to 100,000 cfu/mL)) | Grade code, P. vulgaris, 30 Day [2]: 4 (1001 to 10,000 colonies (thus 10,000 cfu/mL to 100,000 cfu/mL)) | Grade code, Pathogenic Fungi, T. ruburm, 3 Days [3]: 1 | Grade code, Pathogenic Fungi, T. ruburm, 14 Days [3]: 0 | Grade code, Pathogenic Fungi, T. ruburm, 30 Days [3]: 0 | Grade code, Pathogenic Fungi, M. furfur, 3 Days [4]: 0 | Grade code, Pathogenic Fungi, M. furfur, 14 Days [4]: 0 | Grade code, Pathogenic Fungi, M. furfur, 30 Days [4]: 0
